Laboratory results taken from paper PMC7649969, “Pyrazolyl-pyrimidones inhibit the function of human solute carrier protein SLC11A2 (hDMT1) by metal chelation” (RSC Medicinal Chemistry, 2020).
“Also recorded” adds a separate entry of the source.

Key:
Assay type in all cases: cell-based
hDMT1 (SLC11A2) = target: T1, hDMT1 (SLC11A2) (Homo sapiens, UniProt P49281); experiment: radioactive iron uptake assay in HEK293 cells stably overexpressing hDMT1; settings: for mode of inhibition: 55Fe2+ uptake kinetics; for Ki: [Fe^2+] → 0, Dixon plot analysis, read-out: inhibition constant Ki; for Ligand efficiency: from IC50 of radioactive iron uptake in HEK293-hDMT1; for IC50: radioactive iron 1 μM, 15 min incubation, extracellular pH 5.5, HEK293 stably overexpressing hDMT1; for inhibition constant Kii: saturating iron, 1/Vmax vs [I]
T1 construct: DsRED; expressed in transfected cells
T1 sequence (P49281 1-568): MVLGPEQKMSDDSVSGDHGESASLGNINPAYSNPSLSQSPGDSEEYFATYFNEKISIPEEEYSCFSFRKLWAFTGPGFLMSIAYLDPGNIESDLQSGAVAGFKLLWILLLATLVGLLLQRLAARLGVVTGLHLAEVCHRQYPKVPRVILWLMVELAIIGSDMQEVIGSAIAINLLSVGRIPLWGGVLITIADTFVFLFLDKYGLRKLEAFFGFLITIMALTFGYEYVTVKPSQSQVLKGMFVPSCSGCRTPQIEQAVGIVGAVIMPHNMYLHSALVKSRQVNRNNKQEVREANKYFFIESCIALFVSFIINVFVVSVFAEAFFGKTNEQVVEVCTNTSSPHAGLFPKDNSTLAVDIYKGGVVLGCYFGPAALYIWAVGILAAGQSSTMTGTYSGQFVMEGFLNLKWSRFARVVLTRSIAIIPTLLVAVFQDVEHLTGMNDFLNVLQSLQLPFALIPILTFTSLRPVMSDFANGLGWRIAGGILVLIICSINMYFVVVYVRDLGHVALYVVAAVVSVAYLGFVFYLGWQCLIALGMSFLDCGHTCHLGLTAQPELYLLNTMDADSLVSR

SLC39A8 (hZIP8) = target: T2, SLC39A8 (hZIP8) (Homo sapiens, UniProt Q9C0K1); experiment: 55Fe2+ uptake by HEK293T cells transiently transfected with hZIP8; settings: for inhibition of 55Fe2+ uptake by hZIP8: compound 10 μM, 55Fe2+ 1 μM, pH 7.4, HEK293T; for IC50: HEK293T transiently transfected with hZIP8, 55Fe2+ 1 μM, pH 7.4
T2 construct: DsRED; expressed in transfected cells; host or cells: HEK293T (ATCC CRL-3216), transient transfection with Lipofectamine 2000
T2 sequence (Q9C0K1 23-460): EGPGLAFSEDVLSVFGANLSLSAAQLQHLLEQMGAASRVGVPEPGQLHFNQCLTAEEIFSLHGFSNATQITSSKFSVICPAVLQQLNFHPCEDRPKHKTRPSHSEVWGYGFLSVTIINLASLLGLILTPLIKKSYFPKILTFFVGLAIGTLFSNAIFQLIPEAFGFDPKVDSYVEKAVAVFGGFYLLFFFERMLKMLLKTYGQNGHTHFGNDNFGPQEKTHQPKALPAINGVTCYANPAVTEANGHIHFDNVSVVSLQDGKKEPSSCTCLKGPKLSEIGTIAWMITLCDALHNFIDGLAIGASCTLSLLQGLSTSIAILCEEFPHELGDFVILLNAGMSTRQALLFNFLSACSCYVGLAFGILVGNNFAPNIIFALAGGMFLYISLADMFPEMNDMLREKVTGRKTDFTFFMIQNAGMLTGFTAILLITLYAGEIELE
Source text: (§1) Complex formation with Fe^2+ should result in non-selective inhibition of different metal transporters. To test this hypothesis, we investigated whether human SLC39A8 (hZIP8), a transporter of Zn^2+ and Fe^2+ unrelated to SLC11 family, might also be inhibited by our hDMT1 inhibitors. Both SLCs can be tested by inhibition of radioactive iron uptake into HEK293 cells expressing the transporter, at pH 5.5 for hDMT1 and at pH 7.4 for hZIP8.
(§2) Fig. 5 Cross reactivity of hDMT1 inhibitors over the functional activity of the divalent metal transporter hZIP8. (a) ^55Fe^2+ uptake (1 μM) by HEK293T cells (source: American Type Culture Collection, catalog no. CRL-3216) transiently transfected with the empty vector (Ev), hDMT1 or hZIP8. Uptake assay was performed at the optimal pH for the functional activity of each transporter (pH 5.5 and pH 7.4 respectively). The indicated compounds (10 μM) were pre-incubated for 5 min, and then, for 15 min with both compound and ^55Fe^2+. Measured ^55Fe^2+ was corrected by subtracting the background iron uptake measured in non-transfected cells. The data was normalized to the Fe^2+ uptake measured in the presence of DMSO (0.1%) and represented as mean ± SD (N = 5–16; obtained from 2 independent experiments). IC50 determination for pyrazolyl-pyrimidone 13 (b) and bipyridine (c) in HEK293T cells transiently transfected with hDMT1 (left panels) or hZIP8 (right panels). ^55Fe^2+ uptake (1 μM) was measured in the presence of the indicated compound concentration ranges, and the measurements were corrected by subtracting the background iron uptake measured in non-transfected cells. IC50 values were calculated by fitting the data to a sigmoidal 4-parameter equation. Representative experiments are depicted, while IC50 values were calculated as mean ± SD of 3 different experiments.
(§3) Chemicals and reagents were purchased from Merck, except where indicated otherwise.
(§4) Cell Culture. Cellular experiments where conducted either with a HEK293 cell line (ATCC) stably expressing DsRED-hDMT1 plasmid or HEK293T cells (ATCC) transiently transfected with DsRED-hZIP8 or DsRED-hDMT1 plasmids. The cell line stably expressing hDMT1 was generated as described in previous works1,2. In both cases, cells were cultured in Dulbecco´s modified Eagle´s medium (DMEM) supplemented with 10 % foetal bovine serum (FBS), 10 mM HEPES and 1 mM Na-pyruvate under standard cell culture conditions (37 °C, 95 % humidity and air containing 5 % CO2). When culturing the hDMT1 overexpressing cell line, to maintain stable the expression of the exogenous plasmid, culture media was also supplemented with […] geneticin (Life Technologies). […]
(§5) Radiolabelled iron uptake assay. Cells were seeded in clear bottom, white-well, poly-D-lysine coated 96-well plates (Corning). HEK293 cells stably over-expressing hDMT1 were seeded 24 hours before the experiment at a density of 50,000 cells/well. HEK293T cells were seeded at 30,000 cells/well 48 hours before the experiment, and 24 hours after were transfected […]
(§6) using Lipofectamine 2000 (Life technologies) as described in the manufacturer’s protocol.
(§7) Before the uptake assay, culture media was aspirated and the cells were washed with the uptake solution (140 mM NaCl, 2.5 mM KCl, 1 mM CaCl2, 1 mM MgCl2, 1.2 mM K2HPO4, 10 mM glucose, 5 mM HEPES, 5 mM MES, pH 7.4). To determine the iron uptake, the cells were incubated for 15 min at room temperature (RT) with uptake solution (pH 5.5) supplemented with 100 µM Ascorbic acid, and the indicated amount of non-radioactive Ferrous iron (Fe2+) and radiolabelled 55Fe2+ (American Radiolabelled) (0.5 µCi/mL). To stop the uptake process, the solution containing the radiotracer was removed and cells were washed with ice-cold uptake solution (pH 7.5). To determine the iron accumulated within the cells during the incubation time, the scintillation cocktail Mycrosinth 20 (PerkinElmer) was added to each well, and the cells were incubated during 1 hour at RT under constant agitation. […]

hDMT1 = target: T3, hDMT1 (Homo sapiens, UniProt P49281); experiment: 55Fe2+ uptake by HEK293T cells transiently transfected with hDMT1; parameters: DsRED; expressed in transfected cells; host or cells: HEK293T (ATCC CRL-3216), transient transfection with Lipofectamine 2000; settings: for inhibition of 55Fe2+ uptake by hDMT1: compound 10 μM, 55Fe2+ 1 μM, pH 5.5, HEK293T; for IC50: HEK293T transiently transfected with hDMT1, 55Fe2+ 1 μM, pH 5.5
T3 sequence (P49281 1-568): T1 sequence (P49281 1-568)
Source text: as §1, §2, §3, §4, §5, §6, §7

SMILES | mode of inhibition (hDMT1 (SLC11A2)) | Ki (hDMT1 (SLC11A2)) [nM] | Ligand efficiency (hDMT1 (SLC11A2)) | IC50 (hDMT1 (SLC11A2)) [nM] | potency weaker than originally reported value based on a calcein assay (hDMT1 (SLC11A2); radioactive iron uptake vs reported calcein assay) [fold] | inhibition constant Kii (hDMT1 (SLC11A2)) [µM] | inhibition of 55Fe2+ uptake by hZIP8 (SLC39A8 (hZIP8)) | inhibition of 55Fe2+ uptake by hDMT1 (hDMT1) | improvement of IC50 over initial inhibitor 5 (hDMT1 (SLC11A2); radioactive iron uptake) [fold] | IC50 (SLC39A8 (hZIP8)) [µM] | IC50 (hDMT1) [µM]
Cc1nn(-c2ccccn2)c(O)c1C(=O)Nc1cccc(C(F)(F)F)c1 [Compound 3, reference compound] |  |  |  |  |  |  | inhibited both transporters | inhibited both transporters |  |  | 
Cc1cc(=O)[nH]c(-n2nc3c(c2C)CCCC3)n1 [Compound 13] | non-competitive inhibitor | 2000 | 0.45 | 1100 ± 10 |  | 1.7 | inhibited both transporters; also recorded: cross-inhibition | inhibited both transporters | 10 | ~1.1 | ~1.1
c1ccc(-c2ccccn2)nc1 [bipyridine] |  |  |  |  |  |  | inhibited both transporters | inhibited both transporters |  | ~6.5 | ~6.5

Second part, led by results:

mode of inhibition (hDMT1 (SLC11A2)) | Ki (hDMT1 (SLC11A2)) [nM] | Ligand efficiency (hDMT1 (SLC11A2)) | IC50 (hDMT1 (SLC11A2)) [nM] | potency weaker than originally reported value based on a calcein assay (hDMT1 (SLC11A2); radioactive iron uptake vs reported calcein assay) [fold] | inhibition constant Kii (hDMT1 (SLC11A2)) [µM] | inhibition of 55Fe2+ uptake by hZIP8 (SLC39A8 (hZIP8)) | inhibition of 55Fe2+ uptake by hDMT1 (hDMT1) | improvement of IC50 over initial inhibitor 5 (hDMT1 (SLC11A2); radioactive iron uptake) [fold] | SMILES | IC50 (SLC39A8 (hZIP8)) [µM] | IC50 (hDMT1) [µM]
competitive inhibition | 1400 | 0.35 | 1760 ± 60 | 5 | 15.6 | no measurable activity on hZIP8 | only inhibited hDMT1 |  | N=C(N)SCc1cccc2c1oc1c(CSC(=N)N)cccc12 [Compound 1, reference compound] |  | 
 |  |  | 13100 ± 700 |  |  | inhibited both transporters | inhibited both transporters |  | Cc1cc(O)nc(-n2nc(C)cc2C)n1 [Compound 5] |  | 
